Test results reported in patent publication US8906909B2 (Curis, Inc., priority 2009, dated 2014).
pIC50: −log10 of the molar value. Read-outs that look alike come from different tables or passages of the source.

Tests used:
[1] = system: HDACs (HeLa cell nuclear extracts); assay: HDAC enzymatic activity, Biomol Color de Lys system; format: biochemical
How it was run: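 HeLa nuclear extract as HDAC source with Color de Lys substrate in 50 mM Tris/Cl pH 8.0, 137 mM NaCl, 2.7 mM KCl, 1 mM MgCl2. Serially diluted compounds reacted 1 h at 25 °C, then developer added; fluorescence (Ex 350–380/Em 440–460) fitted sigmoidally for IC50.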

H1975 cells = assay: Cell proliferation assay Method B, H1975; format: cell-based; details: Homo sapiens, NCI-H1975, NSCLC, 72 hours, read-out: antiproliferative activity IC50, H1975
Procedure: (§1) Cancer cell lines were plated at 5,000 to 10,000 per well in 96-well flat bottomed plates with various concentration of compounds. The cells were incubated with compounds for 72 hours in the presence of 0.5% of fetal bovine serum. Growth inhibition was accessed by adenosine triphosphate (ATP) content assay using Promega CellTiter-Glo kit. Promega CellTiter-Glo kit is an ATP monitoring system based on firefly luciferase. Briefly, 16 μl of mammalian cell lysis and substrate solution was added to 84 μl of culture medium per well to lyse the cells and stabilize the ATP. The mixture was shaken and incubated for 30 minutes and subsequently the luminescence was measured.

MDA-MB-468 cells = assay: Cell proliferation assay Method B, MDA-MB-468; format: cell-based; details: Homo sapiens, 72 hours, read-out: antiproliferative activity IC50, MDA-MB-468
Procedure: as §1

HCT-118 cells = assay: Cell proliferation assay Method A (ATPlite), HCT-118; format: cell-based; details: 72 hours, read-out: antiproliferative activity IC50, HCT-118
Procedure: (§2) Cancer cell lines were plated at 5,000 to 10,000 per well in 96-well flat bottomed plates with various concentration of compounds. The cells were incubated with compounds for 72 hours in the presence of 0.5% of fetal bovine serum. Growth inhibition was accessed by adenosine triphosphate (ATP) content assay using Perkin Elmer ATPlite kit. ATPlite is an ATP monitoring system based on firefly luciferase. Briefly, 25 μl of mammalian cell lysis solution was added to 50 μl of phenol red-free culture medium per well to lyse the cells and stabilize the ATP. 25 μl of substrate solution was then added to the well and subsequently the luminescence was measured.

Ca127 cells = assay: Cell proliferation assay Method B, Ca127; format: cell-based; details: HNC; Ca127; 72 hours, 0.5% fetal bovine serum, CellTiter-Glo; read-out: antiproliferative activity IC50, Ca127
Procedure: as §1

Sk-Mel-28 cells [2] = assay: Cell proliferation assay Method A (ATPlite), Sk-Mel-28; format: cell-based; details: Homo sapiens, 72 hours, read-out: antiproliferative activity IC50, Sk-Mel-28
Procedure: as §2

U87MG cells = assay: Cell proliferation assay Method B, U87MG; format: cell-based; details: Homo sapiens, U-87 MG, Glioblastoma, 72 hours, read-out: antiproliferative activity IC50, U87MG
Procedure: as §1

MDA-MB-436 cells = assay: Cell proliferation assay Method B, MDA-MB-436; format: cell-based; details: Homo sapiens, 72 hours, read-out: antiproliferative activity IC50, MDA-MB-436
Procedure: as §1

Sk-Mel-28 cells [3] = assay: Cell proliferation assay Method B, Sk-Mel-28; format: cell-based; details: Homo sapiens, Melanoma, 72 hours, read-out: antiproliferative activity IC50, Sk-Mel-28
Procedure: as §1

BT-474 cells = assay: Cell proliferation assay Method A (ATPlite), BT-474; format: cell-based; details: Homo sapiens, 72 hours, read-out: antiproliferative activity IC50, BT-474
Procedure: as §2

H1993 cells [4] = assay: Cell proliferation assay Method A (ATPlite), H1993; format: cell-based; details: Homo sapiens, NCI-H1993, 72 hours, read-out: antiproliferative activity IC50, H1993
Procedure: as §2

HCC1937 cells = assay: Cell proliferation assay Method B, HCC1937; format: cell-based; details: Homo sapiens, 72 hours, read-out: antiproliferative activity IC50, HCC1937
Procedure: as §1

A375 cells = assay: Cell proliferation assay Method B, A375; format: cell-based; details: Homo sapiens, A-375, Melanoma, 72 hours, read-out: antiproliferative activity IC50, A375
Procedure: as §1

BT474 cells = assay: Cell proliferation assay Method B, BT474; format: cell-based; details: Homo sapiens, BT-474, 72 hours, read-out: antiproliferative activity IC50, BT474
Procedure: as §1

RPMI-8226 cells = assay: Cell proliferation assay Method B, RPMI-8226; format: cell-based; details: Homo sapiens, Multiple Myeloma, 72 hours, read-out: antiproliferative activity IC50, RPMI-8226
Procedure: as §1

H1993 cells [5] = assay: Cell proliferation assay Method B, H1993; format: cell-based; details: Homo sapiens, NCI-H1993, NSCLC, 72 hours, read-out: antiproliferative activity IC50, H1993
Procedure: as §1

MDA-MB-231 cells = assay: Cell proliferation assay Method B, MDA-MB-231; format: cell-based; details: Homo sapiens, 72 hours, 0.5% fetal bovine serum, CellTiter-Glo, read-out: antiproliferative activity IC50, MDA-MB-231
Procedure: as §1

[6] = H1975, 0.5% fetal bovine serum, CellTiter-Glo
[7] = 0.5% fetal bovine serum, CellTiter-Glo
[8] = U87MG, 0.5% fetal bovine serum, CellTiter-Glo
[9] = Sk-Mel-28, 0.5% fetal bovine serum, CellTiter-Glo
[10] = A375, 0.5% fetal bovine serum, CellTiter-Glo
[11] = BT474, 0.5% fetal bovine serum, CellTiter-Glo
[12] = H1993, 0.5% fetal bovine serum, CellTiter-Glo

| SMILES | pIC50 [1] | pIC50 (H1975 cells; [6]) | melting point [°C] | pIC50 (MDA-MB-468 cells; [7]) | pIC50 (HCT-118 cells) | pIC50 (Ca127 cells) | pIC50 (Sk-Mel-28 cells [2]) | pIC50 (U87MG cells; [8]) | pIC50 (MDA-MB-436 cells; [7]) | pIC50 (Sk-Mel-28 cells [3]; [9]) | pIC50 (BT-474 cells) | pIC50 (H1993 cells [4]) | pIC50 (A375 cells; [10]) | pIC50 (BT474 cells; [11]) | pIC50 (H1975 cells; Method B) | pIC50 (MDA-MB-468 cells; Breast, Method B) | pIC50 (U87MG cells; Method B) | pIC50 (MDA-MB-436 cells; Breast, Method B) | pIC50 (Sk-Mel-28 cells [3]; SK-MEL-28, Method B) | pIC50 (HCC1937 cells; Breast, Method B) | also measured |
| --- | --- | --- | --- | --- | --- | --- | --- | --- | --- | --- | --- | --- | --- | --- | --- | --- | --- | --- | --- | --- | --- |
| CN(Cc1cc2nc(-c3cnc(N)nc3)nc(N3CCOCC3)c2s1)c1ncc(C(=O)NO)cn1 [Compound 115, 2-(((2-(2-aminopyrimidin-5-yl)-4-morpholinothieno[3,2-d]pyrimidin-6-yl)methyl)(methyl)amino)-N-hydroxypyrimidine-5-carboxamide] | > 7.00 | 7.00 to 8.00 | 175 to 181 | 6.00 to 7.00 | > 7.00 | 7.00 to 8.00 | > 7.00 | 7.00 to 8.00 | 6.00 to 7.00 | 7.00 to 8.00 | > 7.00 | > 7.00 | 7.00 to 8.00 | 7.00 to 8.00 | – | – | – | – | – | – | pIC50 (HCC1937 cells; [7]): 7.00 to 8.00 |
| CNc1ncc(-c2nc(N3CCOCC3)c3sc(CN(C)c4ncc(C(=O)NO)cn4)cc3n2)cn1 [Compound 116, N-hydroxy-2-(methyl((2-(2-(methylamino)pyrimidin-5-yl)-4-morpholinothieno[3,2-d]pyrimidin-6-yl)methyl)amino)pyrimidine-5-carboxamide] | > 7.00 | – | 183 to 187 | – | > 7.00 | – | > 7.00 | – | – | – | > 7.00 | > 7.00 | – | – | 7.00 to 8.00 | 7.00 to 8.00 | 7.00 to 8.00 | 7.00 to 8.00 | > 8.00 | 7.00 to 8.00 | pIC50 (RPMI-8226 cells; Method B): > 8.00; pIC50 (A375 cells; Method B): 7.00 to 8.00; pIC50 (BT474 cells; Breast, Method B): 7.00 to 8.00; pIC50 (H1993 cells [5]; Method B): 7.00 to 8.00 |
| Cc1ncc(-c2nc(N3CCOCC3)c3sc(CN(C)c4ncc(C(=O)NO)cn4)cc3n2)cn1 [Compound 120, N-hydroxy-2-(methyl((2-(2-methylpyrimidin-5-yl)-4-morpholinothieno[3,2-d]pyrimidin-6-yl)methyl)amino)pyrimidine-5-carboxamide] | > 7.00 | – | 184 to 186 | – | – | – | – | – | – | – | – | – | – | – | 7.00 to 8.00 | 7.00 to 8.00 | 7.00 to 8.00 | 7.00 to 8.00 | 7.00 to 8.00 | 7.00 to 8.00 | pIC50 (RPMI-8226 cells; Method B): > 8.00; pIC50 (A375 cells; Method B): 7.00 to 8.00; pIC50 (BT474 cells; Breast, Method B): 7.00 to 8.00; pIC50 (H1993 cells [5]; Method B): 7.00 to 8.00 |
| CN(Cc1cc2nc(-c3cccc(O)c3)nc(N3CCOCC3)c2s1)c1ncc(C(=O)NO)cn1 [Compound 132, N-hydroxy-2-(((2-(3-hydroxyphenyl)-4-morpholinothieno[3,2-d]pyrimidin-6-yl)methyl)(methyl)amino)pyrimidine-5-carboxamide] | > 7.00 | 7.00 to 8.00 | 175 to 181 | 6.00 to 7.00 | > 7.00 | 7.00 to 8.00 | > 7.00 | 7.00 to 8.00 | 7.00 to 8.00 | 7.00 to 8.00 | > 7.00 | > 7.00 | 7.00 to 8.00 | > 8.00 | – | – | – | – | – | – | pIC50 (RPMI-8226 cells; [7]): > 8.00; pIC50 (HCC1937 cells; [7]): 6.00 to 7.00; pIC50 (H1993 cells [5]; [12]): 7.00 to 8.00 |
| CN(Cc1cc2nc(-c3cccc(CO)c3)nc(N3CCOCC3)c2s1)c1ncc(C(=O)NO)cn1 [Compound 138, N-hydroxy-2-(((2-(3-(hydroxymethyl)phenyl)-4-morpholinothieno[3,2-d]pyrimidin-6-yl)methyl)(methyl)amino)pyrimidine-5-carboxamide] | > 7.00 | – | 160 to 164 | – | > 7.00 | – | > 7.00 | – | – | – | > 7.00 | > 7.00 | – | – | 7.00 to 8.00 | 7.00 to 8.00 | > 8.00 | 7.00 to 8.00 | 7.00 to 8.00 | 7.00 to 8.00 | pIC50 (A375 cells; Method B): 7.00 to 8.00; pIC50 (BT474 cells; Breast, Method B): > 8.00; pIC50 (H1993 cells [5]; Method B): 7.00 to 8.00 |
| CC(=O)Nc1ccc(-c2nc(N3CCOCC3)c3sc(CN(C)c4ncc(C(=O)NO)cn4)cc3n2)cc1 [Compound 157, 2-(((2-(4-acetamidophenyl)-4-morpholinothieno[3,2-d]pyrimidin-6-yl)methyl)(methyl)amino)-N-hydroxypyrimidine-5-carboxamide] | > 7.00 | 7.00 to 8.00 | 228 to 230 | 7.00 to 8.00 | – | 7.00 to 8.00 | – | 7.00 to 8.00 | 7.00 to 8.00 | 7.00 to 8.00 | – | – | 7.00 to 8.00 | > 8.00 | – | – | – | – | – | – | pIC50 (MDA-MB-231 cells): 7.00 to 8.00; pIC50 (RPMI-8226 cells; [7]): 7.00 to 8.00; pIC50 (H1993 cells [5]; [12]): 7.00 to 8.00 |
